Columns and labels:
Format in all cases: in vitro ADME
[1] = Stability of semaglutide compared to Rybelsus in simulated gastric medium pH 1.2 without pepsin (Example 4, HPLC); settings: for Residual semaglutide content in percent (%): buffered solution, simulated gastric medium pH 1.2 without pepsin, 0.05 mg/mL of semaglutide, 37° C.
Description: (§1) The gastro-resistance tests with semaglutide were carried out at a concentration of 0.05 mg/mL (5 mg of semaglutide in final 100 mL). The simulated gastric medium was prepared following the same protocol as that described in Example 3.
(§2) The product Rybelsus® comprises Semaglutide, Sodium Salcaprozate (SNAC), Povidone, Microcrystalline Cellulose, and Magnesium Stearate. • Step 1) A 14 mg Rybelsus® tablet was used for the comparative tests and was dissolved in 50 mL of drinking water for thirty minutes with stirring. The final semaglutide concentration was 0.28 mg/mL. • Step 2) An effervescent tablet (according to Example 1A) was added or not to the solution obtained in step 1. After cessation of effervescence, 50 ml of 0.2 N HCL at pH 1.2 were added to obtain a final solution of 100 ml of 0.1 N HCL, which corresponds to the simulated gastric environment. The final concentration of semaglutide is 14 mg per 100 mL. • Step 3) The pepsin was then added or not to the solution obtained in step 2, at the conventional dose of 3.2 mg/ml. The test was carried out for 2 hours at a temperature of 37° C.
The semaglutide content was specifically assayed by high performance liquid chromatography (HPLC). The residual content was calculated by measuring the semaglutide content at time t relative to the initial semaglutide content. The result is a ratio expressed in percent (%). The residual content of semaglutide corresponds to the percentage of protection of the semaglutide.

[2] = Stability of semaglutide in simulated gastric medium at pH 1.2 without pepsin (Example 2, UHPLC-UV); settings: for Semaglutide residual content (%): simulated gastric medium at pH 1.2 without pepsin, 0.05 mg/ml semaglutide, 37° C.
Description: (§3) The purpose of this test is to show the gastric stability of semaglutide in a composition according to the invention. • Step 1) The tablet obtained in Example 1A was dissolved in 50 mL of drinking water in order to obtain a buffered solution. • Step 2) The simulated gastric medium was prepared with hydrochloric acid (0.2 N HCl), adjusting the pH to 1.2. • Step 3) The buffered solution obtained in step 1) was mixed with 50 ml of simulated gastric medium, in order to obtain a final solution of 100 ml with 0.1 N HCL. • Step 4) Semaglutide was added to the solution obtained in step 3), in is order to obtain a final concentration of semaglutide of 0.05 mg/ml. • Step 5) Pepsin was added to the solution obtained in step 4) at a final concentration of 3.2 mg/ml or without addition of pepsin (without pepsin), and the solution obtained was kept under constant stirring at 37° C. for 2 hours.
(§4) The semaglutide assay was performed by ultra-high performance liquid chromatography (UHPLC) coupled to an ultraviolet (UV) detector using an external standard calibration. The residual semaglutide content was calculated by measuring the semaglutide content at time t relative to the initial semaglutide content. The result is a ratio expressed in percent (%). The residual content of semaglutide corresponds to the protection percentage of semaglutide.

pepsin [3] = target: T1, pepsin (Sus scrofa, UniProt P00791); assay: Protection of semaglutide compared to Rybelsus under gastric conditions reproduced in vitro, with pepsin (Example 4, HPLC); settings: buffered solution; simulated gastric medium pH 1.2 with pepsin (3.2 mg/mL); 0.05 mg/ml of semaglutide; T = 2 h; 37° C.
Description: as §1, §2
The semaglutide content was specifically assayed by high performance liquid chromatography (HPLC). The residual content was calculated by measuring the semaglutide content at time t relative to the initial semaglutide content. The result is a ratio expressed in percent (%). […]

pepsin [4] = target: T1, pepsin; assay: Protection of semaglutide under gastric conditions reproduced in vitro, with pepsin (Example 2, UHPLC-UV); settings: for Semaglutide residual content (%): simulated gastric medium at pH 1.2 with pepsin (3.2 mg/ml), 0.05 mg/ml semaglutide, 37° C.
Description: as §3, §4

T1 sequence (P00791 60-385): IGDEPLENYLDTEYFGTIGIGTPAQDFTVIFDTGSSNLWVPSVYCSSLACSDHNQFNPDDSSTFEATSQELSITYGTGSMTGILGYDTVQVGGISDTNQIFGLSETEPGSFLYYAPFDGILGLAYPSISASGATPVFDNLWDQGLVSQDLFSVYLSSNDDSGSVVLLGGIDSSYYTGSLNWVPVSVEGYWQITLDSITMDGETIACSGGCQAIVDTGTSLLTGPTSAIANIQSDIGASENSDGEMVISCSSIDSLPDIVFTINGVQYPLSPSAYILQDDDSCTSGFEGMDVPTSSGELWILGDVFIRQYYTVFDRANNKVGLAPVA

Residual semaglutide content in percent (%) ([1]; T = 1 h): 103.5% | Residual semaglutide content in percent (%) ([1]; T = 2 h): 104.1% | stability of semaglutide (in words) ([1]; in the absence of pepsin, in the presence of the buffer system): stable | degradation of semaglutide (in words) ([2]; formulated with a buffer system, after 2 hours, without pepsin): not degraded | Semaglutide residual content (%) ([2]; with the buffered solution (Example 1A tablet), T 0 h): 103.5% | Semaglutide residual content (%) ([2]; with the buffered solution (Example 1A tablet), T 2 h): 104.1% | Semaglutide residual content (%) ([2]; without buffer system, T 0 h): 100% | Residual semaglutide content in percent (%) (pepsin [3]): 105.2% | residual content (pepsin [4]; acid medium with pepsin and without a buffer system, time not given): 0% | Semaglutide residual content (%) (pepsin [4]; with the buffered solution (Example 1A tablet)): 104.6% | Semaglutide residual content (%) (pepsin [4]; without buffer system): 0%
Compound: CC[C@H](C)[C@H](NC(=O)[C@H](Cc1ccccc1)NC(=O)[C@H](CCC(=O)O)NC(=O)[C@H](CCCCNC(=O)COCCOCCNC(=O)COCCOCCNC(=O)CC[C@H](NC(=O)CCCCCCCCCCCCCCCCC(=O)O)C(=O)O)NC(=O)[C@H](C)NC(=O)[C@H](C)NC(=O)[C@H](CCC(N)=O)NC(=O)CNC(=O)[C@H](CCC(=O)O)NC(=O)[C@H](CC(C)C)NC(=O)[C@H](Cc1ccc(O)cc1)NC(=O)[C@H](CO)NC(=O)[C@H](CO)NC(=O)[C@@H](NC(=O)[C@H](CC(=O)O)NC(=O)[C@H](CO)NC(=O)[C@@H](NC(=O)[C@H](Cc1ccccc1)NC(=O)[C@@H](NC(=O)CNC(=O)[C@H](CCC(=O)O)NC(=O)C(C)(C)NC(=O)[C@@H](N)Cc1cnc[nH]1)[C@@H](C)O)[C@@H](C)O)C(C)C)C(=O)N[C@@H](C)C(=O)N[C@@H](Cc1c[nH]c2ccccc12)C(=O)N[C@@H](CC(C)C)C(=O)N[C@H](C(=O)N[C@@H](CCCNC(=N)N)C(=O)NCC(=O)N[C@@H](CCCNC(=N)N)C(=O)NCC(=O)O)C(C)C [semaglutide]
